Measured values reported in patent publication US8748481B2, “Method for treating gastrointestinal disorder” (Sucampo AG, priority 2004, dated 2014).
Marks after values point to notes of the source that are not given here.

Tested on: subjects with irritable bowel syndrome (IBS)
Test: IBS QOL questionnaire, 12-week double-blind randomized study (Example 7)
Format: in vivo, human
Parameters: key to IBS QOL Overall scaled score, Mean / IBS QOL Dysphoria scaled score, Mean / IBS QOL Interference with Activity scaled score, Mean / IBS QOL Body Image scaled score, Mean / IBS QOL Health Worry scaled score, Mean / IBS QOL Food Avoidance scaled score, Mean / IBS QOL Social Reaction scaled score, Mean / IBS QOL Sexual scaled score, Mean / IBS QOL Relationship scaled score, Mean: IBS-QOL scaled score, 0–100
Details: for IBS QOL Body Image scaled score, Mean / IBS QOL Dysphoria scaled score, Mean / IBS QOL Food Avoidance scaled score, Mean / IBS QOL Health Worry scaled score, Mean / IBS QOL Interference with Activity scaled score, Mean / IBS QOL Overall scaled score, Mean / IBS QOL Relationship scaled score, Mean / IBS QOL Sexual scaled score, Mean / IBS QOL Social Reaction scaled score, Mean: Baseline; for IBS QOL Body Image, Mean change from Baseline / IBS QOL Dysphoria, Mean change from Baseline / IBS QOL Food Avoidance, Mean change from Baseline / IBS QOL Health Worry, Mean change from Baseline / IBS QOL Interference with Activity, Mean change from Baseline / IBS QOL Overall, Mean change from Baseline / IBS QOL Relationship, Mean change from Baseline / IBS QOL Sexual, Mean change from Baseline / IBS QOL Social Reaction, Mean change from Baseline: without LOCF
Protocol: A 12-week, double-blind, randomized study was performed to assess the safety and efficacy of oral 16 μg, 32 μg and 48 μg (total daily dose) of compound A to subjects with irritable bowel syndrome (IBS).
The patients answered the IBS QOL questionnaire at baseline, at week 4, Week 12 and at the end of study, and Questionnaire results were scored according to the IBS QOL User's Manual (A Quality of Life Measure for Persons with Irritable Bowel Syndrome (IBS-QOL): User's Manual and Scoring Diskette for United States Version. Seattle, Wash.: University of Washington; 1997). Scaled scores were used for all analyses, and scores were calculated according to the User's Manual as follows: Scaled Score=([Sum of IBS-QOL items−lowest possible score]/Possible raw score range))×100
Changes from baseline at week 4, week 12 and at the End of Study were assessed for the mean overall score and for the mean domain scores (dysphoria, interference with activity, body image, health worry, food avoidance, social reaction, sexual, and relationship).

CCCCC(F)(F)C(=O)CCC1C(O)CC(=O)C1CCCCCCC(=O)O (stereo not shown) [Compound A, 13,14-dihydro-15-keto-16,16-difluoro-PGE1]
Improvement from baseline in IBS-QOL compared among dose groups (16 μg group vs. 32 μg and 48 μg groups, every specific area and QOL overall): greatest improvement | IBS QOL Body Image scaled score, Mean (16 μg group): 41.42 | IBS QOL Dysphoria scaled score, Mean (16 μg group): 53.19 | IBS QOL Food Avoidance scaled score, Mean (16 μg group): 46.08 | IBS QOL Health Worry scaled score, Mean (16 μg group): 37.74 | IBS QOL Interference with Activity scaled score, Mean (16 μg group): 65.82 | IBS QOL Overall scaled score, Mean (16 μg group): 55.66 | IBS QOL Relationship scaled score, Mean (16 μg group): 67.81 | IBS QOL Sexual scaled score, Mean (16 μg group): 64.95 | IBS QOL Social Reaction scaled score, Mean (16 μg group): 63.97 | IBS QOL Body Image, Mean change from Baseline (16 μg/day, End of Study): 20.41** | IBS QOL Dysphoria, Mean change from Baseline (16 μg/day, End of Study): 21.62** | IBS QOL Food Avoidance, Mean change from Baseline (16 μg/day, End of Study): 13.95** | IBS QOL Health Worry, Mean change from Baseline (16 μg/day, End of Study): 21.94** | IBS QOL Interference with Activity, Mean change from Baseline (16 μg/day, End of Study): 11.95** | IBS QOL Overall, Mean change from Baseline (16 μg/day, End of Study): 16.82** | IBS QOL Relationship, Mean change from Baseline (16 μg/day, End of Study): 14.28** | IBS QOL Sexual, Mean change from Baseline (16 μg/day, End of Study): 14.03** | IBS QOL Social Reaction, Mean change from Baseline (16 μg/day, End of Study): 13.78** | IBS QOL Body Image, Mean change from Baseline (16 μg/day, Week 4): 16.39** | IBS QOL Dysphoria, Mean change from Baseline (16 μg/day, Week 4): 17.85** | IBS QOL Food Avoidance, Mean change from Baseline (16 μg/day, Week 4): 13.89** | IBS QOL Health Worry, Mean change from Baseline (16 μg/day, Week 4): 22.41** | IBS QOL Interference with Activity, Mean change from Baseline (16 μg/day, Week 4): 10.87** | IBS QOL Overall, Mean change from Baseline (16 μg/day, Week 4): 14.7** | IBS QOL Relationship, Mean change from Baseline (16 μg/day, Week 4): 10.74** | IBS QOL Sexual, Mean change from Baseline (16 μg/day, Week 4): 13.33** | IBS QOL Social Reaction, Mean change from Baseline (16 μg/day, Week 4): 11.94** | IBS QOL Body Image, Mean change from Baseline (16 μg/day, Week 12): 22.32** | IBS QOL Dysphoria, Mean change from Baseline (16 μg/day, Week 12): 23.51** | IBS QOL Food Avoidance, Mean change from Baseline (16 μg/day, Week 12): 15.28** | IBS QOL Health Worry, Mean change from Baseline (16 μg/day, Week 12): 23.81** | IBS QOL Interference with Activity, Mean change from Baseline (16 μg/day, Week 12): 13.95** | IBS QOL Overall, Mean change from Baseline (16 μg/day, Week 12): 18.54** | IBS QOL Relationship, Mean change from Baseline (16 μg/day, Week 12): 15.47** | IBS QOL Sexual, Mean change from Baseline (16 μg/day, Week 12): 16.67** | IBS QOL Social Reaction, Mean change from Baseline (16 μg/day, Week 12): 14.58** | IBS QOL Body Image scaled score, Mean (32 μg group): 43.37 | IBS QOL Dysphoria scaled score, Mean (32 μg group): 59.69 | IBS QOL Food Avoidance scaled score, Mean (32 μg group): 52.21 | IBS QOL Health Worry scaled score, Mean (32 μg group): 44.38 | IBS QOL Interference with Activity scaled score, Mean (32 μg group): 69.82 | IBS QOL Overall scaled score, Mean (32 μg group): 60.14 | IBS QOL Relationship scaled score, Mean (32 μg group): 70.23 | IBS QOL Sexual scaled score, Mean (32 μg group): 68.62 | IBS QOL Social Reaction scaled score, Mean (32 μg group): 66.84 | IBS QOL Body Image, Mean change from Baseline (32 μg/day, End of Study): 17.47** | IBS QOL Dysphoria, Mean change from Baseline (32 μg/day, End of Study): 14.77** | IBS QOL Food Avoidance, Mean change from Baseline (32 μg/day, End of Study): 10.79** | IBS QOL Health Worry, Mean change from Baseline (32 μg/day, End of Study): 17.61** | IBS QOL Interference with Activity, Mean change from Baseline (32 μg/day, End of Study): 8.2** | IBS QOL Overall, Mean change from Baseline (32 μg/day, End of Study): 12.58** | IBS QOL Relationship, Mean change from Baseline (32 μg/day, End of Study): 10.79** | IBS QOL Sexual, Mean change from Baseline (32 μg/day, End of Study): 10.23** | IBS QOL Social Reaction, Mean change from Baseline (32 μg/day, End of Study): 11.08** | IBS QOL Body Image, Mean change from Baseline (32 μg/day, Week 4): 15.28** | IBS QOL Dysphoria, Mean change from Baseline (32 μg/day, Week 4): 14.58** | IBS QOL Food Avoidance, Mean change from Baseline (32 μg/day, Week 4): 8.33* | IBS QOL Health Worry, Mean change from Baseline (32 μg/day, Week 4): 16.9** | IBS QOL Interference with Activity, Mean change from Baseline (32 μg/day, Week 4): 7.04* | IBS QOL Overall, Mean change from Baseline (32 μg/day, Week 4): 11.25** | IBS QOL Relationship, Mean change from Baseline (32 μg/day, Week 4): 7.64* | IBS QOL Sexual, Mean change from Baseline (32 μg/day, Week 4): 8.68** | IBS QOL Social Reaction, Mean change from Baseline (32 μg/day, Week 4): 9.9** | IBS QOL Body Image, Mean change from Baseline (32 μg/day, Week 12): 17.99** | IBS QOL Dysphoria, Mean change from Baseline (32 μg/day, Week 12): 15.25** | IBS QOL Food Avoidance, Mean change from Baseline (32 μg/day, Week 12): 11.36** | IBS QOL Health Worry, Mean change from Baseline (32 μg/day, Week 12): 19.44** | IBS QOL Interference with Activity, Mean change from Baseline (32 μg/day, Week 12): 9.42** | IBS QOL Overall, Mean change from Baseline (32 μg/day, Week 12): 13.08** | IBS QOL Relationship, Mean change from Baseline (32 μg/day, Week 12): 9.09* | IBS QOL Sexual, Mean change from Baseline (32 μg/day, Week 12): 10.98** | IBS QOL Social Reaction, Mean change from Baseline (32 μg/day, Week 12): 10.8** | IBS QOL Body Image scaled score, Mean (48 μg group): 45.69 | IBS QOL Dysphoria scaled score, Mean (48 μg group): 56.81 | IBS QOL Food Avoidance scaled score, Mean (48 μg group): 50.37 | IBS QOL Health Worry scaled score, Mean (48 μg group): 44.07 | IBS QOL Interference with Activity scaled score, Mean (48 μg group): 68.25 | IBS QOL Overall scaled score, Mean (48 μg group): 59.85 | IBS QOL Relationship scaled score, Mean (48 μg group): 75.18 | IBS QOL Sexual scaled score, Mean (48 μg group): 71.94 | IBS QOL Social Reaction scaled score, Mean (48 μg group): 66.81 | IBS QOL Body Image, Mean change from Baseline (48 μg/day, End of Study): 14.24** | IBS QOL Dysphoria, Mean change from Baseline (48 μg/day, End of Study): 16.28** | IBS QOL Food Avoidance, Mean change from Baseline (48 μg/day, End of Study): 8.33** | IBS QOL Health Worry, Mean change from Baseline (48 μg/day, End of Study): 17.05** | IBS QOL Interference with Activity, Mean change from Baseline (48 μg/day, End of Study): 7.97** | IBS QOL Overall, Mean change from Baseline (48 μg/day, End of Study): 11.54** | IBS QOL Relationship, Mean change from Baseline (48 μg/day, End of Study): 6.01** | IBS QOL Sexual, Mean change from Baseline (48 μg/day, End of Study): 3.49 | IBS QOL Social Reaction, Mean change from Baseline (48 μg/day, End of Study): 12.06** | IBS QOL Body Image, Mean change from Baseline (48 μg/day, Week 4): 13.24** | IBS QOL Dysphoria, Mean change from Baseline (48 μg/day, Week 4): 17.28** | IBS QOL Food Avoidance, Mean change from Baseline (48 μg/day, Week 4): 12.01** | IBS QOL Health Worry, Mean change from Baseline (48 μg/day, Week 4): 19.61** | IBS QOL Interference with Activity, Mean change from Baseline (48 μg/day, Week 4): 9.14** | IBS QOL Overall, Mean change from Baseline (48 μg/day, Week 4): 12.43** | IBS QOL Relationship, Mean change from Baseline (48 μg/day, Week 4): 6.87** | IBS QOL Sexual, Mean change from Baseline (48 μg/day, Week 4): 8.46** | IBS QOL Social Reaction, Mean change from Baseline (48 μg/day, Week 4): 8.82** | IBS QOL Body Image, Mean change from Baseline (48 μg/day, Week 12): 17.08** | IBS QOL Dysphoria, Mean change from Baseline (48 μg/day, Week 12): 20.83** | IBS QOL Health Worry, Mean change from Baseline (48 μg/day, Week 12): 23.33** | IBS QOL Interference with Activity, Mean change from Baseline (48 μg/day, Week 12): 10.95** | IBS QOL Overall, Mean change from Baseline (48 μg/day, Week 12): 14.8** | IBS QOL Relationship, Mean change from Baseline (48 μg/day, Week 12): 6.95** | IBS QOL Sexual, Mean change from Baseline (48 μg/day, Week 12): 5 | IBS QOL Social Reaction, Mean change from Baseline (48 μg/day, Week 12): 14.17** | IBS-QOL change from baseline vs. zero (all groups (16, 32, 48 μg)): significantly different from Zero
